Literature values, collected in PMC10197133, “Synthesis, Computational Insights, and Evaluation of Novel Sigma Receptors Ligands” (ACS Chemical Neuroscience, 2023).

Target: S1R (Rattus norvegicus, UniProt Q9R0C9)
Details: statement in the introduction; cited from earlier work

S1R, sequence (Q9R0C9 whole entry): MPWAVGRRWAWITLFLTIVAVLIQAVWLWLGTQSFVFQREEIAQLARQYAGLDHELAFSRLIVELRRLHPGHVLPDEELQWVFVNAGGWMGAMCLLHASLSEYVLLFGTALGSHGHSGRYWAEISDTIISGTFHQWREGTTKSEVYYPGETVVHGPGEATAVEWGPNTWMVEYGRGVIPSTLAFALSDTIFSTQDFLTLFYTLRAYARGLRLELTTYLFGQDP

CCCN1CCC(c2cccc(S(C)(=O)=O)c2)CC1 [Pridopidine]
fold greater affinity for S1R than for D2: 100 fold
